Test results as given in US10662229B2, “Spider venom peptides and methods of use for modulating sodium channels” (priority 2016, dated 2020).
Where a SMILES comes first, the peptide text is derived from it. Bridges are numbered along the chain shown (N, C = ends). [ ]: non-standard residue; d: D form. Nle = CCCC[C@H](N)C(=O)O

Assays:
Type in all cases: cell-based
hNav1.7 = target: T1, hNav1.7 (Homo sapiens, UniProt Q15858); experiment: FLIPR membrane potential assay, hNav1.7; conditions: for Selectivity for Nav1.7, Nav subtype 1.7: membrane potential assay, reference subtype
T1 construct: host or cells: HEK293
Procedure: (§1) HEK293 cells stably expressing hNav1.1, hNav1.2, hNav1.3, hNav1.4, hNav1.5, hNav1.6, hNav1.7 and […] (SB Drug Discovery, Glasgow, UK) were cultured in minimum essential media (MEM) containing 10% v/v FBS supplemented with L-glutamine (2 mM) and selection antibiotics G-418 (0.5 mg/mL), blasticidin (2-4 μg/mL) and zeocin (0.5 mg/mL) as recommended by the manufacturer. CHO cells stably expressing hNav1.8 in a tetracycline-inducible system (Chantest, OH, USA) were cultured in Ham's F-12 containing 10% v/v FBS and selection antibiotics as recommended by the manufacturer. To induce hNav1.8 expression, cells were cultured in the presence of tetracycline (1 μg/mL) for 24 h at 27° C. Cells were grown in a humidified 5% CO2 incubator at 37° C., grown to 70-80% confluence, and passaged every 3-4 days using TrypLE Express (Invitrogen).
(§2) Cells were plated 48 h before the assay on 384-well black walled imaging plates at a density of 10,000 to 15,000 cells per well and were loaded with red membrane potential dye for 30 min at 37° C. (Molecular Devices, CA, USA). One vial of bulk red membrane potential dye was reconstituted to a 10× stock solution with PSS and stored at −20° C. and diluted to 1× solution with PSS on the day of the assay. […] Changes in membrane potential were assessed using the FLIPR^TETRA (excitation 515 to 545 nm, emission 565 to 625 nm) every second for 300 s after adding agonists.

hNav1.5 = target: T2, hNav1.5 (Homo sapiens, UniProt Q14524); experiment: FLIPR membrane potential assay, hNav1.5; conditions: for Selectivity for Nav1.7, Nav subtype 1.5: membrane potential assay
T2 construct: host or cells: HEK293
Procedure: as §1, §2

hNav1.6 = target: T3, hNav1.6 (Homo sapiens, UniProt Q9UQD0); experiment: FLIPR membrane potential assay, hNav1.6; conditions: for Selectivity for Nav1.7, Nav subtype 1.6: membrane potential assay
T3 construct: host or cells: HEK293
T3 sequence (Q9UQD0 whole entry): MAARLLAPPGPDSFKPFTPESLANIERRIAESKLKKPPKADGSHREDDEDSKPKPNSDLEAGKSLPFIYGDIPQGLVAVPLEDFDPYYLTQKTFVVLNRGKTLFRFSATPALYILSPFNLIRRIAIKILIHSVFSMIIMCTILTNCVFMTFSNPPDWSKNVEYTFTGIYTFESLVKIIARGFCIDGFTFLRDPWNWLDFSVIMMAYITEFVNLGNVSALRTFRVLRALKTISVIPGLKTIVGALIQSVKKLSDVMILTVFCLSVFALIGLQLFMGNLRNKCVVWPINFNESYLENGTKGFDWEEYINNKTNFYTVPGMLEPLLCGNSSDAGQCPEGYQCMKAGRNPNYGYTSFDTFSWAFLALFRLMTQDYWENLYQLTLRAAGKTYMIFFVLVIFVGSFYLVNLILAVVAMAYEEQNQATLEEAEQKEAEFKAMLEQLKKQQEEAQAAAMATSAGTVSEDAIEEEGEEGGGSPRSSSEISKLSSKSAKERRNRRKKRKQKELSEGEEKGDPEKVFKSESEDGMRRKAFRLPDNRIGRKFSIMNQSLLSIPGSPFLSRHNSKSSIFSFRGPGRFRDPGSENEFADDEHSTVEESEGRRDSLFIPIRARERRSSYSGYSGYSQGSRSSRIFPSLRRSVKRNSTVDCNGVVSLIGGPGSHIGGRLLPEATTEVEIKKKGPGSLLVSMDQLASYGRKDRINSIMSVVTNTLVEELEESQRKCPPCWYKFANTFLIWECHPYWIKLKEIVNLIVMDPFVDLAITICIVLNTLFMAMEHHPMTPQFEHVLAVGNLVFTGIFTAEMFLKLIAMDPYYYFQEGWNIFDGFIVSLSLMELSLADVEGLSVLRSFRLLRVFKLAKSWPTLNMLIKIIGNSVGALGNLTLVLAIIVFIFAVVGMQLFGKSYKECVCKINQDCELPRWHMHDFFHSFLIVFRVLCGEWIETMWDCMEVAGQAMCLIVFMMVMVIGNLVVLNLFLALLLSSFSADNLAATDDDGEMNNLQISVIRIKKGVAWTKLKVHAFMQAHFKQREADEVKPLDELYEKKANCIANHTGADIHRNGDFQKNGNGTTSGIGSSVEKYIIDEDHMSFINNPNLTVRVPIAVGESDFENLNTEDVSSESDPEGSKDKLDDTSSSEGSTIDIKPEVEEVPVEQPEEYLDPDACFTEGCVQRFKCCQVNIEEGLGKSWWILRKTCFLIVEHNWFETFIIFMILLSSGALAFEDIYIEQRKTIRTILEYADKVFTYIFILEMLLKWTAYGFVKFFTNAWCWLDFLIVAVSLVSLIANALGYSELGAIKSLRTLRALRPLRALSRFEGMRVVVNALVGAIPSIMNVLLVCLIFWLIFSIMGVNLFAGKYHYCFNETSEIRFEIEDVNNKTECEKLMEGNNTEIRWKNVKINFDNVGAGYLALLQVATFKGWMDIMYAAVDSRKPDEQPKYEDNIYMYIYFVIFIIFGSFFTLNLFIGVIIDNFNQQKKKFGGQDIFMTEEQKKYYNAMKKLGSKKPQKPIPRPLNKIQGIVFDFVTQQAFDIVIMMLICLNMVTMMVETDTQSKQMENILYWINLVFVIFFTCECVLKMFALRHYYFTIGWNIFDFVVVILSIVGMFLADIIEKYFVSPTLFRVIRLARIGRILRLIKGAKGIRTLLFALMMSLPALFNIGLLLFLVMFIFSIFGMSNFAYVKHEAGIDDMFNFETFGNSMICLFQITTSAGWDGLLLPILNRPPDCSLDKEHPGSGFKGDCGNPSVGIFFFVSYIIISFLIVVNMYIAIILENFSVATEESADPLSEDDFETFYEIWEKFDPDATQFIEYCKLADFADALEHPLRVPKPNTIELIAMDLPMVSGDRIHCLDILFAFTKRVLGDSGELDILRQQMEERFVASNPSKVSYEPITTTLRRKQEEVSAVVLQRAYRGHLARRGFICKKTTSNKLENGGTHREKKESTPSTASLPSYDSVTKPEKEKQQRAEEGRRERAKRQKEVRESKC
Procedure: as §1, §2

hNav1.2 = target: T4, hNav1.2 (Homo sapiens, UniProt Q99250); experiment: FLIPR membrane potential assay, hNav1.2; conditions: for Selectivity for Nav1.7, Nav subtype 1.2: membrane potential assay
T4 construct: host or cells: HEK293
T4 sequence (Q99250 whole entry): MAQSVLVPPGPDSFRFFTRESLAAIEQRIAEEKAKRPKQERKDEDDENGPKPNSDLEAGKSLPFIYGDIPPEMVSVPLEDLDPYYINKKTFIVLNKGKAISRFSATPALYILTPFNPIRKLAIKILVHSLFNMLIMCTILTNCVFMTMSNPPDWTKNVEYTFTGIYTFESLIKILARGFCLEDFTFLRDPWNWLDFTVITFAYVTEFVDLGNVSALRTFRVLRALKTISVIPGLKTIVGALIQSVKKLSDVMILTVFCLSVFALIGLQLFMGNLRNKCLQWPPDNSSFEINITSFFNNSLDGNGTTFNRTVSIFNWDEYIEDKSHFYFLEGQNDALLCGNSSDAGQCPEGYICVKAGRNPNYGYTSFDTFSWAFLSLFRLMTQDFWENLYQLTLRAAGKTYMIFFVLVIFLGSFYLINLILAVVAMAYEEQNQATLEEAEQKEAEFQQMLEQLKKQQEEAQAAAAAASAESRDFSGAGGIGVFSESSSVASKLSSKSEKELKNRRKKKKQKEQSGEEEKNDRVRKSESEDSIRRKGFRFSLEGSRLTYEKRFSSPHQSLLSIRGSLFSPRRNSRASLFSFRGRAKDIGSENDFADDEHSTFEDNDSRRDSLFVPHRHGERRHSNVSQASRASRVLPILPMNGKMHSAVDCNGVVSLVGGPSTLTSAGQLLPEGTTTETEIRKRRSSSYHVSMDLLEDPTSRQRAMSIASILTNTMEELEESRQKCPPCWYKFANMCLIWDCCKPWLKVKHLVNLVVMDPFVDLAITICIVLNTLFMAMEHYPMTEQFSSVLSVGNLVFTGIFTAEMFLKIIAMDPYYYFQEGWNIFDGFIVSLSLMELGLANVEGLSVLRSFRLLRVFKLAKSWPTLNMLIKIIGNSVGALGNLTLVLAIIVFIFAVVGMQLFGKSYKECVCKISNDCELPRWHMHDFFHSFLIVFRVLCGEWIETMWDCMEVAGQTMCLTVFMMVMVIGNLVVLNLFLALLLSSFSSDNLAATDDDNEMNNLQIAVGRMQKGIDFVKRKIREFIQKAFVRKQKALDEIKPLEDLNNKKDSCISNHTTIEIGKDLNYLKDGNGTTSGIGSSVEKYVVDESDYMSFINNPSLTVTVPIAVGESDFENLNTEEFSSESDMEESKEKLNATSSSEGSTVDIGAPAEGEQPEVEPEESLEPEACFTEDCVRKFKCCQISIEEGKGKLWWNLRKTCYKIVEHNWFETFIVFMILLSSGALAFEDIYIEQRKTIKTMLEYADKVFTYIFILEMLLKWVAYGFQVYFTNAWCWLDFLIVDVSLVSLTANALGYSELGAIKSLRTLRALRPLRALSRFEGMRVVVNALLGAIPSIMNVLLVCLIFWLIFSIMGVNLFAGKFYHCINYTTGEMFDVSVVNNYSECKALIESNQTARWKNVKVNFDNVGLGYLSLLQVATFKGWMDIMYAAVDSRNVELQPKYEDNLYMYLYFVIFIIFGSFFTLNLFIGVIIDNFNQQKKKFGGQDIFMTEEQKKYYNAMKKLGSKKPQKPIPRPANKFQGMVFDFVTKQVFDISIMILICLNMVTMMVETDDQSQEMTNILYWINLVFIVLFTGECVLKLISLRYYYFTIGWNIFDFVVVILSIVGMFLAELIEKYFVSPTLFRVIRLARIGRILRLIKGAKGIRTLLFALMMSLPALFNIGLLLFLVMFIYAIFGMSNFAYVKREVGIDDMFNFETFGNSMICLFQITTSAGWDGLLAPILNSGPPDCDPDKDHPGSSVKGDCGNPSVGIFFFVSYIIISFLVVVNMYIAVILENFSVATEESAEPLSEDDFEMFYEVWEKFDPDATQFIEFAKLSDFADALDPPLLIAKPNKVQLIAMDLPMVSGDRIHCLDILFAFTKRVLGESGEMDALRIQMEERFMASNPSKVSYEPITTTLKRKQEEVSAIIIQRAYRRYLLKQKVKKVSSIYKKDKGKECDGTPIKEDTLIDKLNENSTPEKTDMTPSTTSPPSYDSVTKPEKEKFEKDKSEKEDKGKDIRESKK
Procedure: as §1, §2

hNav1.1 = target: T5, hNav1.1 (Homo sapiens, UniProt P35498); experiment: FLIPR membrane potential assay, hNav1.1; conditions: for Selectivity for Nav1.7, Nav subtype 1.1: membrane potential assay
T5 construct: host or cells: HEK293
Procedure: as §1, §2

hNav1.4 = target: T6, hNav1.4 (Homo sapiens, UniProt P35499); experiment: FLIPR membrane potential assay, hNav1.4; conditions: for Selectivity for Nav1.7, Nav subtype 1.4: membrane potential assay
T6 construct: host or cells: HEK293
Procedure: as §1, §2

hNav1.8 = target: T7, hNav1.8 (Homo sapiens, UniProt Q9Y5Y9); experiment: FLIPR membrane potential assay, hNav1.8; conditions: for Selectivity for Nav1.7, Nav subtype 1.8: membrane potential assay
T7 construct: host or cells: HEK293
Procedure: as §1, §2

hNav1.3 = target: T8, hNav1.3 (Homo sapiens, UniProt Q9NY46); experiment: FLIPR membrane potential assay, hNav1.3; conditions: for Selectivity for Nav1.7, Nav subtype 1.3: membrane potential assay
T8 construct: host or cells: HEK293
Procedure: as §1, §2

| SMILES | IC50 (hNav1.7) [µM] | Selectivity for Nav1.7, Nav subtype 1.7 (hNav1.7) | IC50 (hNav1.5) [µM] | Selectivity for Nav1.7, Nav subtype 1.5 (hNav1.5) | IC50 (hNav1.6) [µM] | Selectivity for Nav1.7, Nav subtype 1.6 (hNav1.6) | IC50 (hNav1.2) [µM] | Selectivity for Nav1.7, Nav subtype 1.2 (hNav1.2) | IC50 (hNav1.1) [µM] | Selectivity for Nav1.7, Nav subtype 1.1 (hNav1.1) | IC50 (hNav1.4) [µM] | Selectivity for Nav1.7, Nav subtype 1.4 (hNav1.4) | IC50 (hNav1.8) [µM] | Selectivity for Nav1.7, Nav subtype 1.8 (hNav1.8) | IC50 (hNav1.3) [µM] | Selectivity for Nav1.7, Nav subtype 1.3 (hNav1.3) |
| --- | --- | --- | --- | --- | --- | --- | --- | --- | --- | --- | --- | --- | --- | --- | --- | --- |
| CSCC[C@@H]1NC(=O)[C@H](Cc2ccc(O)cc2)NC(=O)[C@H](CCCNC(=N)N)NC(=O)[C@@H](NC(=O)[C@@H](N)CC(=O)O)CSSC[C@@H]2NC(=O)[C@@H]3CSSC[C@@H](C(=O)N[C@@H](C)C(=O)N[C@@H](Cc4c[nH]c5ccccc45)C(=O)N[C@@H](CC(=O)O)C(=O)N[C@@H](Cc4ccccc4)C(=O)N[C@H](C(=O)N[C@@H](Cc4ccccc4)C(=O)N[C@H](C(=O)O)[C@@H](C)O)[C@@H](C)O)NC(=O)[C@H](Cc4ccc(O)cc4)NC(=O)[C@H](CCCCN)NC(=O)[C@H](CCSC)NC(=O)[C@H](CCCNC(=N)N)NC(=O)[C@H](CCCNC(=N)N)NC(=O)[C@H](CCCCN)NC(=O)[C@H](CSSC[C@H](NC(=O)[C@H](CC(=O)O)NC(=O)CNC(=O)[C@H](Cc4ccccc4)NC1=O)C(=O)N[C@@H](CCC(=O)O)C(=O)N[C@@H](CCCCN)C(=O)N[C@@H](CC(=O)O)C(=O)N[C@@H](CCC(=O)O)C(=O)N[C@@H](CC(=O)O)C(=O)N3)NC(=O)CNC(=O)[C@H](CC(C)C)NC(=O)[C@H](Cc1c[nH]cn1)NC(=O)[C@H](CCCCN)NC2=O [[K24R]Pnc1a] (H-DCRYMFGDCEKDEDCCKHLGCKRRMKYCAWDFTFT-OH; disulfide 2-16, 9-21, 15-28) | 0.031 | 1 | > 30 | >900 | > 30 | >900 | 0.414 | 13 | 0.856 | 27 | 3 | 102 | > 30 | >900 | 8 | 260 |
| CCCC[C@@H]1NC(=O)[C@H](Cc2ccc(O)cc2)NC(=O)[C@H](CCCNC(=N)N)NC(=O)[C@@H](NC(=O)[C@@H](N)CC(=O)O)CSSC[C@@H]2NC(=O)[C@@H]3CSSC[C@@H](C(=O)N[C@@H](C)C(=O)N[C@@H](Cc4c[nH]c5ccccc45)C(=O)N[C@@H](CC(=O)O)C(=O)N[C@@H](Cc4ccccc4)C(=O)N[C@H](C(=O)N[C@@H](Cc4ccccc4)C(=O)N[C@H](C(=O)O)[C@@H](C)O)[C@@H](C)O)NC(=O)[C@H](Cc4ccc(O)cc4)NC(=O)[C@H](CCCCN)NC(=O)[C@H](CCCC)NC(=O)[C@H](CCCCN)NC(=O)[C@H](CCCNC(=N)N)NC(=O)[C@H](CCCCN)NC(=O)[C@H](CSSC[C@H](NC(=O)[C@H](CC(=O)O)NC(=O)CNC(=O)[C@H](Cc4ccccc4)NC1=O)C(=O)N[C@@H](CCC(=O)O)C(=O)N[C@@H](CCCCN)C(=O)N[C@@H](CC(=O)O)C(=O)N[C@@H](CCC(=O)O)C(=O)N[C@@H](CC(=O)O)C(=O)N3)NC(=O)CNC(=O)[C@H](CC(C)C)NC(=O)[C@H](Cc1c[nH]cn1)NC(=O)[C@H](CCCCN)NC2=O [[M5,25Nle]Pnc1a] (H-DCRY[Nle]FGDCEKDEDCCKHLGCKRK[Nle]KYCAWDFTFT-OH; disulfide 2-16, 9-21, 15-28) | 0.116 | 1 | > 30 | >260 | 5 | 41 | 0.773 | 7 | 2 | 17 | 3 | 22 | > 30 | >260 | 1 | 10 |
| CSCC[C@@H]1NC(=O)[C@H](Cc2ccc(O)cc2)NC(=O)[C@H](CCCNC(=N)N)NC(=O)[C@@H](NC(=O)[C@@H](N)CC(=O)O)CSSC[C@@H]2NC(=O)[C@@H]3CSSC[C@@H](C(=O)N[C@@H](C)C(=O)N[C@@H](Cc4c[nH]c5ccccc45)C(=O)N[C@@H](CC(=O)O)C(=O)N[C@@H](Cc4ccccc4)C(=O)N[C@H](C(=O)N[C@@H](Cc4ccccc4)C(=O)N[C@H](C(=O)O)[C@@H](C)O)[C@@H](C)O)NC(=O)[C@H](Cc4ccc(O)cc4)NC(=O)[C@H](CCCCN)NC(=O)[C@H](CCSC)NC(=O)[C@H](CCCCN)NC(=O)[C@H](CCCCN)NC(=O)[C@H](CCCCN)NC(=O)[C@H](CSSC[C@H](NC(=O)[C@H](CC(=O)O)NC(=O)CNC(=O)[C@H](Cc4ccccc4)NC1=O)C(=O)N[C@@H](CCC(=O)O)C(=O)N[C@@H](CCCCN)C(=O)N[C@@H](CC(=O)O)C(=O)N[C@@H](CCC(=O)O)C(=O)N[C@@H](CC(=O)O)C(=O)N3)NC(=O)CNC(=O)[C@H](CC(C)C)NC(=O)[C@H](Cc1c[nH]cn1)NC(=O)[C@H](CCCCN)NC2=O [[R23K]Pnc1a] (H-DCRYMFGDCEKDEDCCKHLGCKKKMKYCAWDFTFT-OH; disulfide 2-16, 9-21, 15-28) | 0.251 | 1 | > 30 | >120 | 16 | 63 | 3 | 14 | 8 | 33 | 10 | 40 | > 30 | >120 | 5 | 19 |
| CSCC[C@@H]1NC(=O)[C@H](Cc2ccc(O)cc2)NC(=O)[C@H](CCCNC(=N)N)NC(=O)[C@@H](NC(=O)[C@@H](N)CC(=O)O)CSSC[C@@H]2NC(=O)[C@@H]3CSSC[C@@H](C(=O)N[C@@H](C)C(=O)N[C@@H](C)C(=O)N[C@@H](CC(=O)O)C(=O)N[C@@H](Cc4ccccc4)C(=O)N[C@H](C(=O)N[C@@H](Cc4ccccc4)C(=O)N[C@H](C(=O)O)[C@@H](C)O)[C@@H](C)O)NC(=O)[C@H](Cc4ccc(O)cc4)NC(=O)[C@H](CCCCN)NC(=O)[C@H](CCSC)NC(=O)[C@H](CCCCN)NC(=O)[C@H](CCCNC(=N)N)NC(=O)[C@H](CCCCN)NC(=O)[C@H](CSSC[C@H](NC(=O)[C@H](CC(=O)O)NC(=O)CNC(=O)[C@H](Cc4ccccc4)NC1=O)C(=O)N[C@@H](CCC(=O)O)C(=O)N[C@@H](CCCCN)C(=O)N[C@@H](CC(=O)O)C(=O)N[C@@H](CCC(=O)O)C(=O)N[C@@H](CC(=O)O)C(=O)N3)NC(=O)CNC(=O)[C@H](CC(C)C)NC(=O)[C@H](Cc1c[nH]cn1)NC(=O)[C@H](CCCCN)NC2=O [[W30A]Pnc1a] (H-DCRYMFGDCEKDEDCCKHLGCKRKMKYCAADFTFT-OH; disulfide 2-16, 9-21, 15-28) | 7 | 1 | 6 | 0.9 | > 30 | 4 | 24 | 3 | 15 | 2 | 12 | 2 | > 30 | 4 | 11 | 2 |
| CSCC[C@@H]1NC(=O)[C@H](C)NC(=O)[C@H](CCCNC(=N)N)NC(=O)[C@@H](NC(=O)[C@@H](N)CC(=O)O)CSSC[C@@H]2NC(=O)[C@@H]3CSSC[C@@H](C(=O)N[C@@H](C)C(=O)N[C@@H](Cc4c[nH]c5ccccc45)C(=O)N[C@@H](CC(=O)O)C(=O)N[C@@H](Cc4ccccc4)C(=O)N[C@H](C(=O)N[C@@H](Cc4ccccc4)C(=O)N[C@H](C(=O)O)[C@@H](C)O)[C@@H](C)O)NC(=O)[C@H](Cc4ccc(O)cc4)NC(=O)[C@H](CCCCN)NC(=O)[C@H](CCSC)NC(=O)[C@H](CCCCN)NC(=O)[C@H](CCCNC(=N)N)NC(=O)[C@H](CCCCN)NC(=O)[C@H](CSSC[C@H](NC(=O)[C@H](CC(=O)O)NC(=O)CNC(=O)[C@H](Cc4ccccc4)NC1=O)C(=O)N[C@@H](CCC(=O)O)C(=O)N[C@@H](CCCCN)C(=O)N[C@@H](CC(=O)O)C(=O)N[C@@H](CCC(=O)O)C(=O)N[C@@H](CC(=O)O)C(=O)N3)NC(=O)CNC(=O)[C@H](CC(C)C)NC(=O)[C@H](Cc1c[nH]cn1)NC(=O)[C@H](CCCCN)NC2=O [[Y4A]Pnc1a] (H-DCRAMFGDCEKDEDCCKHLGCKRKMKYCAWDFTFT-OH; disulfide 2-16, 9-21, 15-28) | 0.934 | 1 | 18 | 20 | > 30 | >30 | 8 | 8 | 17 | 19 | 12 | 12 | > 30 | >30 | 20 | 22 |
